Measurements taken from patent US7223759B2, “Antibacterial 3,5-diaminopiperidine-substituted aromatic and heteroaromatic compounds” (Anadys Pharmaceuticals, Inc., priority 2003, dated 2007).
Like-named read-outs stand apart in the source and are kept apart here.

Test system: Escherichia coli (ATCC25922) or Staphylococcus aureus (ATCC25923)
Test: Antibacterial MIC, microdilution method in Mueller-Hinton medium
Assay type: cell-based
Conditions: for MIC: Escherichia coli, 18 h, read-out: Potency (MIC)
Procedure, shortened: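 Read after 18 h incubation at 35° C, MIC is the lowest compound level that blocked growth. Compounds were tested in duplicate over 64–0.5 μg/ml two-fold dilutions using Mueller-Hinton microdilution per NCCLS standard.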

[1] = MIC in E. coli or S. aureus, two-fold serial dilutions 64 to 0.5 μg/ml in duplicate, 18 hours of incubation at 35° C.

Structure (SMILES)	MIC [µg/mL]	also measured
COc1cccc(C(=O)Nc2ccc(Nc3nc(N4C[C@H](N)C[C@H](N)C4)nc(N4C[C@H](N)C[C@H](N)C4)n3)cc2O)c1O [N-[3-hydroxy-4-(2-hydroxy-3-methoxy-benzoylamino)-phenyl]-4,6-Bis-((3R,5S)-3,5-diamino-piperidin-1-yl)-[1,3,5]triazine-2-amine]	< 16	
N[C@@H]1C[C@H](N)CN(c2nc(Nc3ccc(NC(=O)c4ccc5cccnc5c4O)cc3)nc(N3C[C@H](N)C[C@H](N)C3)n2)C1 [N-{4-[(8-hydroxy-quinoline-7-carbonyl)-amino]-phenyl}-4,6-Bis-((3R,5S)-3,5-diamino-piperidin-1-yl)-[1,3,5]triazine-2-amine]	< 16	
N[C@@H]1C[C@H](N)CN(c2nc(N3CCC(n4c(=O)[nH]c5ccccc54)CC3)nc(N3C[C@H](N)C[C@H](N)C3)n2)C1 [8-(4,6-Bis-((3R,5S)-3,5-0diamino-piperidin-1-yl)-[1,3,5]triazin-2-yl)-1-phenyl-1,3,8-triaza-spiro[4.5]decan-4-one]		MIC [1]: > 64 µg/mL
Cl.N[C@@H]1C[C@H](N)CN(c2nc(Nc3ccon3)nc(N3C[C@H](N)C[C@H](N)C3)n2)C1 [N-isoxazol-3-yl-4,6-Bis-((3R,5S)-3,5-diamino-piperidin-1-yl)-[1,3,5]triazine-2-amine]		MIC [1]: > 64 µg/mL
NC[C@@H]1C[C@H](N)CN1c1nc(Nc2ccc(NC(=O)c3ccc(O)cc3O)c(O)c2)nc(N2C[C@H](N)C[C@H](N)C2)n1 [N-{4-[4-((2S,4S)-4-Amino-2-aminomethyl-pyrrolidin-1-yl)-6-((3R,5S)-3,5-diamino-piperidin-1-yl)-[1,3,5]triazin-2-ylamino]-2-hydroxy-phenyl}-2,4-dihydroxy-benzamide]	< 16	
N[C@@H]1C[C@H](N)CN(c2nc(Nc3ccc(NC(=O)c4ccc(F)c(F)c4O)cc3)nc(N3C[C@H](N)C[C@H](N)C3)n2)C1 [N-[4-(3,4-difluoro-2-hydroxy-benzoylamino)-phenyl]-4,6-Bis-((3R,5S)-3,5-diamino-piperidin-1-yl)-[1,3,5]triazine-2-amine]	< 64	
Cc1ccc(C(=O)Nc2ccc(Nc3nc(N4CCCCC4)nc(N4CCC(N5CCCC5)CC4)n3)cc2O)cc1 [N-{4-[4-((3R,5S)-3,5-Diamino-piperidin-1-yl)-6-(4-pyrrolidin-1-yl-piperidin-1-yl)-[1,3,5]triazin-2-ylamino]-2-hydroxy-phhenyl}-4-methyl-benzamide]		MIC [1]: < 64 µg/mL
Cl.O=C(Oc1ccccc1)c1ccc(Nc2nc(N3CCCCC3)nc(N3CCCCC3)n2)cc1O [drawing 569, 4-[4,6-Bis-((3R,5S)-3,5-diamino-piperidin-1-yl)-[1,3,5]triazin-2-ylamino]-2-hydroxy-benzoic acidphenyl ester]		Potency (MIC) [1]: ++ (++ means MIC<16 μg/ml in E. coli or S. aureus)
CC(=O)c1ccc(Nc2nc(N3C[C@H](N)C[C@H](N)C3)nc(N3CCC[C@@H](O)C3)n2)cc1 [1-{4-[4-((3R,5S)-3,5-Diamino-piperidin-1-yl)-6-((R)-3-hydroxy-piperidin-1-yl)-[1,3,5]triazin-2-ylamino]-phenyl}-ethanone]	> 64	
N[C@@H]1C[C@H](N)CN(c2nc(Nc3ccc(NC(=O)C=Cc4ccccc4)c(O)c3)nc(N3C[C@H](N)C[C@H](N)C3)n2)C1 [N-[3-hydroxy-4-(3-phenyl-acryloylamino)-phenyl]-4,6-Bis-((3R,5S)-3,5-diamino-piperidin-1-yl)-[1,3,5]triazine-2-amine]	< 16	
N[C@@H]1C[C@H](N)CN(c2nc(Nc3ccc(NC(=O)c4ccc5ccccc5c4O)cc3)nc(N3C[C@@H](O)[C@@H](O)C3)n2)C1 [1-Hydroxy-naphthalene-2-carboxylic acid {4-[4-((3S,5R)-3,5-diamino-piperidin-1-yl)-6-((3R,4S)-3,4-dihydroxy-pyrrolidin-1-yl)-[1,3,5]triazin-2-ylamino]-phenyl}-amide]	< 64	
COc1cccc(C(=O)Nc2ccc(Nc3nc(N4C[C@H](N)C[C@H](N)C4)nc(N4C[C@H](N)C[C@H](N)C4)n3)cc2Cl)c1O [N-[3-chloro-4-(2-hydroxy-3-methoxy-benzoylamino)-phenyl]-4,6-Bis-((3R,5S)-3,5-diamino-piperidin-1-yl)-[1,3,5]triazine-2-amine]	< 16	
COc1cccc(OC)c1C(=O)Nc1ccc(Nc2nc(N3C[C@H](N)C[C@H](N)C3)nc(N3C[C@H](N)C[C@H](N)C3)n2)cc1O [N-[4-(2,6-dimethoxy-benzoylamino)-3-hydroxy-phenyl]-4,6-Bis-((3R,5S)-3,5-diamino-piperidin-1-yl)-[1,3,5]triazine-2-amine]	< 64	
COc1nc(Nc2ccc(C(=O)CC(=O)Nc3ccc4c(c3)OC(F)(F)O4)cc2)nc(N2C[C@H](N)C[C@H](N)C2)n1 [3-{4-[4-((3R,5S)-3,5-Diamino-piperidin-1-yl)-6-methoxy-[1,3,5]triazin-2-ylamino]-phenyl}-N-(2,2-difluoro-benzo[1,3]dioxol-5-yl)-3-oxo-propionamide]	< 16	
N[C@@H]1C[C@H](N)CN(c2nc(Nc3ccc4c(c3)-c3ccccc3C4=O)nc(N3C[C@@H](O)[C@@H](O)C3)n2)C1 [3-[4-((3S,5R)-3,5-Diamino-piperidin-1-yl)-6-((3R,4S)-3,4-dihydroxy-pyrrolidin-1-yl)-[1,3,5]triazin-2-ylamino}-fluoren-9-one]	> 64	
N[C@@H]1C[C@H](N)CN(c2cc(Nc3ccc(NC(=O)c4ccc5ccccc5c4O)cc3)nc(N3C[C@H](N)C[C@H](N)C3)n2)C1 [1-Hydroxy-naphthalene-2-carboxylicacid {4-[2-((3R,5S)-3,5-diamino-piperidin-1-yl)-6-((3S,5R)-3,5-diamino-piperidin-1-yl)-pyrimidin-4-ylamino]-phenyl}-amide]	< 16	
CN(C)c1ccc(C(=O)Nc2ccc(Nc3nc(N4C[C@H](N)C[C@H](N)C4)nc(N4C[C@H](N)C[C@H](N)C4)n3)cc2O)c(O)c1 [N-[4-(4-dimethylamino-2-hydroxy-benzoylamino)-3-hydroxy-phenyl]-4,6-Bis-((3R,5S)-3,5-diamino-piperidin-1-yl)-[1,3,5]triazine-2-amine]	< 16	
N[C@@H]1C[C@H](N)CN(c2nc(Nc3ccc(NC(=O)c4ccc5ccccc5c4O)cc3)nc(N3C[C@@H](N)[C@@H](N)C3)n2)C1 [1-Hydroxy-naphthalene-2-carboxylic acid {4-[4-((3R,5S)-3,5-diamino-piperidin-1-yl)-6-((3R,4S)-3,4-diamino-pyrrolidin-1-yl)-[1,3,5]triazin-2-ylamino]-phenyl}-amide]	< 16	
N[C@@H]1C[C@H](N)CN(c2nc(Nc3ccc(NS(=O)(=O)c4ccc5c(c4)CN(C(=O)C(F)(F)F)CC5)c(O)c3)nc(N3C[C@H](N)C[C@H](N)C3)n2)C1 [N-{3-hydroxy-4-[2-(2,2,2-trifluoro-acetyl)-1,2,3,4-tetrahydro-isoquinoline-7-sulfonylamino]-phenyl}-4,6-Bis-((3R,5S)-3,5-diamino-piperidin-1-yl)-[1,3,5]triazine-2-amine]	> 64	
N[C@@H]1C[C@H](N)CN(c2cc(N3C[C@H](N)C[C@H](N)C3)cc(N(c3ccc([N+](=O)[O-])cc3)c3ccc([N+](=O)[O-])cc3)c2)C1 [(3,5-Bis-((3R,5S)-3,5-diamino-piperidin-1-yl)-phenyl)-bis-(4-nitro-phenyl)-amine]		MIC [1]: < 64 µg/mL
N[C@@H]1C[C@H](N)CN(c2nc(Nc3ccc(NC(=O)c4ccc5ccccc5c4)c(O)c3)nc(N3C[C@H](N)C[C@H](N)C3)n2)C1 [N-{3-hydroxy-4-[(naphthalene-2-carbonyl)-amino]-phenyl}-4,6-Bis-((3R,5S)-3,5-diamino-piperidin-1-yl)-[1,3,5]triazine-2-amine]		MIC [1]: < 64 µg/mL
N[C@@H]1C[C@H](N)CN(c2nc(Nc3ccc(NC(=O)c4ccc(F)cc4O)c(O)c3)nc(N3C[C@H](N)C[C@H](N)C3)n2)C1 [N-[4-(4-fluoro-2-hydroxy-benzoylamino)-3-hydroxy-phenyl]-4,6-Bis-((3R,5S)-3,5-diamino-piperidin-1-yl)-[1,3,5]triazine-2-amine]	< 16	
CC(=O)c1ccc(Nc2nc(N3CCCCC3)nc(N3CCCCC3)n2)cc1.Cl [1-{4-[4-((3R,4S)-3-Aminomethyl-4-hydroxy-piperidin-1-yl)-6-((3R,5S)-3,5-diamino-piperidin-1-yl)-[1,3,5]triazin-2-ylammino]-phenyl}-ethanone]		MIC [1]: > 64 µg/mL
COC(=O)c1ccc(Nc2nc(N3CCCCC3)nc(N3CCCCC3)n2)c(O)c1 [44-[4,6-Bis-((3R,5S)-3,5-diamino-piperidin-1-yl)-[1,3,5]triazin-2-ylamino]-3-hydroxy-benzoic acidmethyl ester]		MIC [1]: > 64 µg/mL
NC[C@@H]1C[C@H](N)CN1c1nc(Nc2ccc(C(=O)CC(=O)Nc3ccc(SC(F)(F)F)cc3)cc2)nc(N2C[C@H](N)C[C@H](N)C2)n1 [3-{4-[4-((2S,4S)-4-Amino-2-aminomethyl-pyrrolidin-1-yl)-6-((3R,5S)-3,5-diamino-piperidin-1-yl)-[1,3,5]triazin-2-ylamino]-phenyl}-3-oxo-N-(4-trifluoromethylsulfanyl-phenyl)-propionamide]	< 16	
NC[C@@H]1C[C@@H](O)CN1c1nc(Nc2ccc(S(=O)(=O)Nc3ccc4cn[nH]c4c3)cc2)nc(N2C[C@H](N)C[C@H](N)C2)n1 [4-[4-((2S,4R)-2-Aminomethyl-4-hydroxy-pyrrolidin-1-yl)-6-((3R,5S)-3,5-diamino-piperidin-1-yl)-[1,3,56]triazin-2-ylamino]-N-(1H-indazol-6-yl)-benzenesulfonamide]		Potency (MIC) [1]: − (− means MIC>64 μg/ml in E. coli or S. aureus)
N[C@@H]1C[C@H](N)CN(c2nc(Nc3ccc(NC(=O)c4cc(Br)ccc4O)c(O)c3)nc(N3C[C@H](N)C[C@H](N)C3)n2)C1 [N-[4-(5-bromo-2-hydroxy-benzoylamino)-3-hydroxy-phenyl]-4,6-Bis-((3R,5S)-3,5-diamino-piperidin-1-yl)-[1,3,5]triazine-2-amine]	< 16	
